The results in this text go back to patent US12252524B2, “GIP/GLP1 co-agonist compounds” (Eli Lilly and Company, priority 2018, dated 2025).

Numbered stars: 1 amine (or outer) side, 2 acyl side, 3 side chain; on linkers, the order of the positions; unused ones are H or OH. Square brackets hold non-standard residues; d marks the D form. Side chains are listed from the residue outwards. Peptide text beside a SMILES is read from it. * marks the point of attachment. C20 diacid = O=C(O)CCCCCCCCCCCCCCCCCCC(=O)*; C18 diacid = O=C(O)CCCCCCCCCCCCCCCCC(=O)*; αMePhe(2-F) = C[C@](N)(Cc1ccccc1F)C(=O)O; γGlu = O=C(O)[C@H](CCC(=O)[*:2])N[*:1]; 3Pal = N[C@@H](Cc1cccnc1)C(=O)O; αMeL = CC(C)C[C@](C)(N)C(=O)O; AEEA = NCCOCCOCC(=O)O; Aib = CC(C)(N)C(=O)O

Test [1] has as its target T1, gastric inhibitory peptide receptor (GIPR) (Homo sapiens, UniProt P48546).
T1 sequence (P48546 22-466): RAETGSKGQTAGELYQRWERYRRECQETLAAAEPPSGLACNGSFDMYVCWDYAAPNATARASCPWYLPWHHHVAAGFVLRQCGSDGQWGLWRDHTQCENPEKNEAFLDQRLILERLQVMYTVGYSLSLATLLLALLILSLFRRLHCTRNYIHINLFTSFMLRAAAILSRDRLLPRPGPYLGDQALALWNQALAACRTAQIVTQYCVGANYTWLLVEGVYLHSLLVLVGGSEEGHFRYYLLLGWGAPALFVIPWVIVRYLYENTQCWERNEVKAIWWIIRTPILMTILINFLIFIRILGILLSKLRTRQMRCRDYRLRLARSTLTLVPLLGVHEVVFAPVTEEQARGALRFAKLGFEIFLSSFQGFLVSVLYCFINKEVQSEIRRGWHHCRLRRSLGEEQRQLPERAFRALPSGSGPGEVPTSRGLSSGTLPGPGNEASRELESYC
Briefly: cAMP pharmacological functional assay in presence of casein, hGIPR. Format: cell-based. The settings on record: HEK293 cells expressing hGIPR, 0.1% Casein, geometric mean; read-out: hGIPR cAMP Rel EC50 nM (SEM, n).

The target of test [2] is human GLP-1 receptor (GLP-1R) (Homo sapiens, UniProt P43220). Kind of test: cAMP pharmacological functional assay in presence of casein, hGLP-1R. Type of test: cell-based. The settings on record: HEK293 cells expressing hGLP-1R, 0.1% Casein, geometric mean; read-out: hGLP1R cAMP Rel EC50 nM (SEM, n).
Chain of human GLP-1 receptor (GLP-1R) (P43220 24-463): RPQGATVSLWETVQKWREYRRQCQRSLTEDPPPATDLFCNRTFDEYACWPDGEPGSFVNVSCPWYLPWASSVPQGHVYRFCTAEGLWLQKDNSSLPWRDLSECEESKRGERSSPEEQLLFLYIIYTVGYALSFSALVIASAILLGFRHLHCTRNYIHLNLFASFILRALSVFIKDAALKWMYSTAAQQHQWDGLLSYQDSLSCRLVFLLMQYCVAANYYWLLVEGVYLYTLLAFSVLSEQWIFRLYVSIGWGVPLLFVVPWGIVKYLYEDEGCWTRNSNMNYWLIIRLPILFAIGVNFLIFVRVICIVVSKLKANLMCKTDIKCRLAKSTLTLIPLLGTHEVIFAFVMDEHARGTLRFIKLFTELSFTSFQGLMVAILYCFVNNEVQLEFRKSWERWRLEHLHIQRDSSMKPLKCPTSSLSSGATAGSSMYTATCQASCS

As a reminder, the EC50 is the concentration giving half of the maximal effect. In the case of `CC[C@H](C)[C@H](NC(=O)[C@H](CC(C)C)NC(=O)[C@H](Cc1ccc(O)cc1)NC(=O)[C@@H](CCC(=O)O)NC(=O)[C@@H](NC(=O)[C@H](Cc1ccccc1)NC(=O)[C@@H](NC(=O)C(C)(C)NC(=O)[C@H](CCC(N)=O)NC(=O)[C@H](C)NC(=O)[C@H](CCCCNC(=O)COCCOCCNC(=O)COCCOCCNC(=O)[C@@H](N)CCCCNC(=O)CCCCCCCCCCCCCCCCC(=O)O)NC(=O)[C@H](CCC(=O)O)NC(=O)[C@H](CC(=O)O)NC(=O)[C@H](CC(C)C)NC(=O)C(C)(CC(C)C)NC(=O)[C@@H](NC(=O)[C@H](CO)NC(=O)[C@H](Cc1c[nH]cn1)NC(=O)[C@H](CC(=O)O)NC(=O)[C@H](CO)NC(=O)[C@@H](NC(=O)C(C)(Cc1ccccc1F)NC(=O)[C@@H](NC(=O)CNC(=O)[C@H](CCC(=O)O)NC(=O)C(C)(C)NC(=O)[C@@H](N)Cc1ccc(O)cc1)[C@@H](C)O)[C@@H](C)O)[C@@H](C)CC)[C@@H](C)O)[C@@H](C)CC)C(=O)N[C@@H](CCC(=O)O)C(=O)NCC(=O)NCC(=O)N1CCC[C@H]1C(=O)N[C@@H](CO)C(=O)N[C@@H](CO)C(=O)NCC(=O)N[C@@H](C)C(=O)N1CCC[C@H]1C(=O)N1CCC[C@H]1C(=O)N1CCC[C@H]1C(=O)N[C@@H](CO)C(N)=O` (stereo partly shown) [Example 176], the concentration for a half-maximal effect (EC50) in test [1] turned out to be 0.523 nM; in test [2] it was 1.07 nM.
In the same order, the values of `CC[C@H](C)[C@H](NC(=O)[C@H](CC(C)C)NC(=O)[C@H](Cc1ccc(O)cc1)NC(=O)[C@@H](CCC(=O)O)NC(=O)[C@@H](NC(=O)[C@H](Cc1ccccc1)NC(=O)[C@H](Cc1c[nH]cn1)NC(=O)C(C)(C)NC(=O)[C@H](CCC(N)=O)NC(=O)[C@H](C)NC(=O)[C@H](CCCCNC(=O)COCCOCCNC(=O)COCCOCCNC(=O)CC[C@H](NC(=O)CCCCCCCCCCCCCCCCC(=O)O)C(=O)O)NC(=O)[C@H](CCC(=O)O)NC(=O)[C@H](CC(=O)O)NC(=O)[C@H](CC(C)C)NC(=O)[C@](C)(CC(C)C)NC(=O)[C@@H](NC(=O)[C@H](CO)NC(=O)[C@H](Cc1c[nH]cn1)NC(=O)[C@H](CC(=O)O)NC(=O)[C@H](CO)NC(=O)[C@@H](NC(=O)[C@](C)(Cc1ccccc1F)NC(=O)[C@@H](NC(=O)CNC(=O)[C@H](CCC(=O)O)NC(=O)C(C)(C)NC(=O)[C@@H](N)Cc1ccc(O)cc1)[C@@H](C)O)[C@@H](C)O)[C@@H](C)CC)[C@@H](C)CC)C(=O)N[C@@H](CCC(=O)O)C(=O)NCC(=O)NCC(=O)N1CCC[C@H]1C(=O)N[C@@H](CO)C(=O)N[C@@H](CO)C(=O)NCC(=O)N[C@@H](C)C(=O)N1CCC[C@H]1C(=O)N1CCC[C@H]1C(=O)N1CCC[C@H]1C(=O)N[C@@H](CO)C(N)=O` [Example 177] (H-Y[Aib]EGT[αMePhe(2-F)]TSDHSI[αMeL]LDEK([AEEA-AEEA-γGlu-C18 diacid])AQ[Aib]HFI[dE]YLIEGGPSSGAPPPS-NH2) are 1.4 nM and 6.79 nM.
In the same order, the values of `CC[C@H](C)[C@H](NC(=O)[C@H](CC(C)C)NC(=O)[C@H](Cc1ccc(O)cc1)NC(=O)[C@@H](CCC(=O)O)NC(=O)[C@@H](NC(=O)[C@H](Cc1ccccc1)NC(=O)[C@H](CCC(=O)O)NC(=O)C(C)(C)NC(=O)[C@H](CCC(N)=O)NC(=O)[C@H](C)NC(=O)[C@H](CCCCNC(=O)COCCOCCNC(=O)COCCOCCNC(=O)CC[C@H](NC(=O)CCCCCCCCCCCCCCCCCCC(=O)O)C(=O)O)NC(=O)[C@H](CCC(=O)O)NC(=O)[C@H](CC(=O)O)NC(=O)[C@H](CC(C)C)NC(=O)[C@](C)(CC(C)C)NC(=O)[C@@H](NC(=O)[C@H](CO)NC(=O)[C@H](CCC(N)=O)NC(=O)[C@H](CC(=O)O)NC(=O)[C@H](CO)NC(=O)[C@@H](NC(=O)[C@](C)(Cc1ccccc1F)NC(=O)[C@@H](NC(=O)CNC(=O)[C@H](CCC(=O)O)NC(=O)C(C)(C)NC(=O)[C@@H](N)Cc1ccc(O)cc1)[C@@H](C)O)[C@@H](C)O)[C@@H](C)CC)[C@@H](C)CC)C(=O)N[C@@H](CCC(=O)O)C(=O)NCC(=O)NCC(=O)N1CCC[C@H]1C(=O)N[C@@H](CO)C(=O)N[C@@H](CO)C(=O)NCC(=O)N[C@@H](C)C(=O)N1CCC[C@H]1C(=O)N1CCC[C@H]1C(=O)N1CCC[C@H]1C(=O)N[C@@H](CO)C(N)=O` [Example 187] (H-Y[Aib]EGT[αMePhe(2-F)]TSDQSI[αMeL]LDEK([AEEA-AEEA-γGlu-C20 diacid])AQ[Aib]EFI[dE]YLIEGGPSSGAPPPS-NH2) are 0.0371 nM and 0.0577 nM.
In the same order, the values of `CC[C@H](C)[C@H](NC(=O)[C@H](CC(C)C)NC(=O)[C@H](Cc1ccc(O)cc1)NC(=O)C(C)(C)NC(=O)[C@@H](NC(=O)[C@H](Cc1ccccc1)NC(=O)[C@H](CCC(=O)O)NC(=O)C(C)(C)NC(=O)[C@H](CCC(N)=O)NC(=O)[C@H](C)NC(=O)[C@H](CCCCNC(=O)COCCOCCNC(=O)COCCOCCNC(=O)CC[C@H](NC(=O)CCCCCCCCCCCCCCCCCCC(=O)O)C(=O)O)NC(=O)[C@H](CCC(=O)O)NC(=O)[C@H](CC(=O)O)NC(=O)[C@H](CC(C)C)NC(=O)[C@](C)(CC(C)C)NC(=O)[C@@H](NC(=O)[C@H](CO)NC(=O)[C@H](Cc1cccnc1)NC(=O)[C@H](CC(=O)O)NC(=O)[C@H](CO)NC(=O)[C@@H](NC(=O)[C@](C)(Cc1ccccc1F)NC(=O)[C@@H](NC(=O)CNC(=O)[C@H](CCC(=O)O)NC(=O)C(C)(C)NC(=O)[C@@H](N)Cc1ccc(O)cc1)[C@@H](C)O)[C@@H](C)O)[C@@H](C)CC)[C@@H](C)CC)C(=O)N[C@@H](CCC(=O)O)C(=O)NCC(=O)NCC(=O)N1CCC[C@H]1C(=O)N[C@@H](CO)C(=O)N[C@@H](CO)C(=O)NCC(=O)N[C@@H](C)C(=O)N1CCC[C@H]1C(=O)N1CCC[C@H]1C(=O)N1CCC[C@H]1C(=O)N[C@@H](CO)C(N)=O` [Example 188] (H-Y[Aib]EGT[αMePhe(2-F)]TSD[3Pal]SI[αMeL]LDEK([AEEA-AEEA-γGlu-C20 diacid])AQ[Aib]EFI[Aib]YLIEGGPSSGAPPPS-NH2) are 0.121 nM and 0.13 nM.
Turning to `CC[C@H](C)[C@H](NC(=O)[C@H](CC(C)C)NC(=O)[C@H](Cc1ccc(O)cc1)NC(=O)[C@@H](CCC(=O)O)NC(=O)[C@@H](NC(=O)[C@H](Cc1ccccc1)NC(=O)[C@H](CCC(=O)O)NC(=O)C(C)(C)NC(=O)[C@H](CCC(N)=O)NC(=O)[C@H](C)NC(=O)[C@H](CCCCNC(=O)COCCOCCNC(=O)COCCOCCNC(=O)CC[C@H](NC(=O)CCCCCCCCCCCCCCCCCCC(=O)O)C(=O)O)NC(=O)[C@H](CCC(=O)O)NC(=O)[C@H](CC(=O)O)NC(=O)[C@H](CC(C)C)NC(=O)[C@](C)(CC(C)C)NC(=O)[C@@H](NC(=O)[C@H](CO)NC(=O)[C@H](Cc1cccnc1)NC(=O)[C@H](CC(=O)O)NC(=O)[C@H](CO)NC(=O)[C@@H](NC(=O)[C@](C)(Cc1ccccc1F)NC(=O)[C@@H](NC(=O)CNC(=O)[C@H](CCC(=O)O)NC(=O)C(C)(C)NC(=O)[C@@H](N)Cc1c[nH]cn1)[C@@H](C)O)[C@@H](C)O)[C@@H](C)CC)[C@@H](C)CC)C(=O)N[C@@H](CCC(=O)O)C(=O)NCC(=O)NCC(=O)N1CCC[C@H]1C(=O)N[C@@H](CO)C(=O)N[C@@H](CO)C(=O)NCC(=O)N[C@@H](C)C(=O)N1CCC[C@H]1C(=O)N1CCC[C@H]1C(=O)N1CCC[C@H]1C(=O)N[C@@H](CO)C(N)=O` [Example 190] (H-H[Aib]EGT[αMePhe(2-F)]TSD[3Pal]SI[αMeL]LDEK([AEEA-AEEA-γGlu-C20 diacid])AQ[Aib]EFI[dE]YLIEGGPSSGAPPPS-NH2), the EC50 turned out to be 0.738 nM in test [1] and 0.0241 nM in test [2].
